This passage reports relative viability results from the supplement of paper PMC10307832.

What all share (test): relative viability (nuclei count vs DMSO), 5 days (fraction); higher = more cells survive
Compound in the experiment “Shikonin + Bortezomib”: CC(C)=CC[C@@H](O)C1=CC(=O)c2c(O)ccc(O)c2C1=O [Shikonin] + CC(C)C[C@H](NC(=O)[C@H](Cc1ccccc1)NC(=O)c1cnccn1)B(O)O [Bortezomib] (partner 0.002 µM)
The essentials: (§1)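 Lung cancer cell lines, seeded in 1536-well plates, were treated the following day by pin tool with a single drug or with five library-drug doses (not always all listed) in √10 steps on top of a fixed anchor-drug dose. Cells were fixed and nuclei stained in one step after 5 days, and nuclei were counted. Relative viability is the nuclei count for treated wells divided by that for vehicle wells, reported as medians of duplicate plates.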

Compound in the experiment “Shikonin + Vorinostat”: CC(C)=CC[C@@H](O)C1=CC(=O)c2c(O)ccc(O)c2C1=O [Shikonin] + O=C(CCCCCCC(=O)Nc1ccccc1)NO [Vorinostat] (partner 1 µM)
A digest of the protocol: as §1

Compound in experiment [1]: CC(C)N(CCCNC(=O)Nc1ccc(C(C)(C)C)cc1)C[C@H]1O[C@@H](n2ccc3c(N)ncnc32)[C@H](O)[C@@H]1O + COc1cccc2cc(-c3nc([C@H]4CC[C@H](C(=O)O)CC4)n4ncnc(N)c34)[nH]c12 [OSI-027] (partner 0.5 µM)
The essentials: as §1

Compound in experiment [2]: CC(C)N(CCCNC(=O)Nc1ccc(C(C)(C)C)cc1)C[C@H]1O[C@@H](n2ccc3c(N)ncnc32)[C@H](O)[C@@H]1O + Nc1ncn([C@H]2C[C@H](O)[C@@H](CO)O2)c(=O)n1 [Decitabine] (partner 2 µM)
A digest of the protocol: as §1

As to UMC-11, the relative viability in the experiment with Shikonin + Bortezomib (first compound 0.01 µM) is 0.773; with Shikonin + Bortezomib (first compound 0.1 µM), 0.854; with Shikonin + Bortezomib (first compound 0.3162 µM), 0.675; with Shikonin + Bortezomib (first compound 1 µM), 0.812; with Shikonin + Vorinostat (first compound 0.01 µM), 0.322; with Shikonin + Vorinostat (first compound 0.1 µM), 0.34. Further, the relative viability with Shikonin + Vorinostat (first compound 0.3162 µM) is 0.415; with Shikonin + Vorinostat (first compound 1 µM) it was 0.396; in experiment [1] (first compound 0.08 µM) it was 0.458; in experiment [1] (first compound 0.253 µM) it was 0.465; in experiment [1] (first compound 0.8 µM), 0.453; in experiment [1] (first compound 2.53 µM), 0.522. Further, the relative viability in experiment [1] (first compound 8 µM) came to 0.532; in experiment [2] (first compound 0.08 µM), 0.584; in experiment [2] (first compound 0.253 µM), 0.621; in experiment [2] (first compound 0.8 µM), 0.488; in experiment [2] (first compound 2.53 µM), 0.534; in experiment [2] (first compound 8 µM), 0.585.
